Here are results for seven compounds from patent publication US9303027B2 (dated 2016).

SMILES strings stand for the structures.

For `O=C(O)c1ccc(C2(C(=O)N[C@H](CN3CCCC3)c3ccccc3)CC2)cc1`, the melting point (as a rule, the temperature, or range, at which the solid turns liquid) lay in the range of 134 to 136 °C. With `Cc1noc2ccc(C3(C(=O)N[C@H](CN4CCCC4)c4ccccc4)CC3)cc12` (stereo in doubt) the figure was 158.5 to 158.8 °C; with `CS(=O)(=O)Nc1ccc(C2(C(=O)N[C@H](CN3CCCC3)c3ccccc3)CC2)cc1`, 165 to 168 °C; with `CS(=O)(=O)Nc1cccc(C2(C(=O)N[C@H](CN3CCCC3)c3cccc(OCC(=O)O)c3)CC2)c1`, 160 to 162 °C. With `CS(=O)(=O)Nc1cc(C2(C(=O)N[C@H](CN3CCCC3)c3ccccc3)CC2)c(F)cc1F` (stereo in doubt) the figure was 81.2 to 81.4 °C; with `O=C(N[C@H](CN1CCCC1)c1cccc(OCc2ccccc2)c1)C1(c2ccc3oc(=O)[nH]c3c2)CC1`, 94 to 96 °C; with `N#Cc1ccc(COc2cccc([C@@H](CN3CCCC3)NC(=O)C3(c4ccc5oc(=O)[nH]c5c4)CC3)c2)cc1` (stereo in doubt), 88 to 89 °C.
